Measured values reported in patent US20170014407A1, “PYRIDAZINE DERIVATIVES FOR USE IN THE PREVENTON OR TREATMENT OF AN ATAXIC DISORDER” (TAKEDA PHARMACEUTICAL COMPANY LIMITED, priority 2014, published 2017).

What was measured:
C57B16 mice = assay: Delayed eyeblink conditioning test (dEBC); assay type: in vivo, mouse; details: Group E, scopolamine 0.3 mg/kg subcutaneous
Source text: Three-month old, male C57B16 mice were implanted with recording electrodes in the orbicularis oculi muscle and with stimulating electrodes on the supraorbital nerve. For classical conditioning, animals were presented with a 350-ms tone as a conditioned stimulus (CS) at the end of which received an electrical pulse in the supraorbital nerve as unconditioned stimulus (US). Classical conditioning was achieved using a delay paradigm. For this, a tone (350 ms, 2 kHz, 85-90 dB) was presented as CS. The US consisted of a paired pulse with 1 millisecond of inter-pulse interval. Each pulse lasted for 0.1 millisecond. The US was presented at the end of the CS. A total of two habituation, ten conditioning, and five extinction sessions were carried out for each animal. Further details of this method can be found in the article by Gruart A., “Involvement of the CA3-CA1 synapse in the acquisition of associative learning in behaving mice”, J. Neurosci., 2006, 26, 1077-1087.
The effects on associative learning of a DAAO inhibitor compound of the invention were compared against different control and scopolamine-administered groups. Scopolamine is io a non-selective muscarinic receptor antagonist shown to consistently produce impairment of learning in rodents (see Klinkenberg, A., “The validity of scopolamine as a pharmacological model for cognitive impairment: A review of animal behavioral studies” Neuroscience and Biobehavioral Reviews, 2010, 34, 1307-1350.
is Nine groups, each containing 15 mice except for the untreated control group which contained 14 mice, were tested:
Group A was orally administered with Vehicle 1 (an aqueous solution of 0.5% methyl cellulose);
Group B was orally administered with a solution of a DAAO inhibitor of formula (I) in Vehicle 1 at a dose of 0.1 mg/kg (Solution 1);
Group C was orally administered with a solution of a DAAO inhibitor of formula (I) (the same one as for Group B) in Vehicle 1 at a dose of 1.0 mg/kg (Solution 2);
Group D was administered subcutaneously with Vehicle 2 (distilled water);
Group E was administered subcutaneously with a solution of scopolamine in Vehicle 2 at a dose of 0.3 mg/kg (Solution 3);
Group F was administered orally with Solution 1 and subcutaneously with Solution 3;
Group G was administered orally with Solution 2 and subcutaneously with Solution 3;
Group H was administered orally with Vehicle 1 and subcutaneously with Vehicle 2;
Group I was the untreated control group.

[1] = system: mice carrying inherited or chemically-induced ataxia mutations; details: Saigoh et al. 1998, cited from earlier work; for Concentration of endogenous D-serine in the cerebellum: ataxic mutant mice; for Effect on ataxia: mice carrying inherited or chemically-induced ataxia mutations

Row | Structure (SMILES) | Mean Percentage of Conditioned Responses (%) (C57B16 mice; conditioning session 1) | Mean Percentage of Conditioned Responses (%) (C57B16 mice; conditioning session 2) | Mean Percentage of Conditioned Responses (%) (C57B16 mice; conditioning session 3) | Mean Percentage of Conditioned Responses (%) (C57B16 mice; conditioning session 4) | Mean Percentage of Conditioned Responses (%) (C57B16 mice; conditioning session 5) | Mean Percentage of Conditioned Responses (%) (C57B16 mice; conditioning session 6) | Mean Percentage of Conditioned Responses (%) (C57B16 mice; conditioning session 7) | Mean Percentage of Conditioned Responses (%) (C57B16 mice; conditioning session 8) | Mean Percentage of Conditioned Responses (%) (C57B16 mice; conditioning session 9) | Mean Percentage of Conditioned Responses (%) (C57B16 mice; conditioning session 10) | Mean Percentage of Conditioned Responses (%) (C57B16 mice; extinction session 1) | Mean Percentage of Conditioned Responses (%) (C57B16 mice; extinction session 2) | Mean Percentage of Conditioned Responses (%) (C57B16 mice; extinction session 3) | Mean Percentage of Conditioned Responses (%) (C57B16 mice; extinction session 4) | Mean Percentage of Conditioned Responses (%) (C57B16 mice; extinction session 5) | Mean Percentage of Conditioned Responses (%) (C57B16 mice; habituation session 1) | Mean Percentage of Conditioned Responses (%) (C57B16 mice; habituation session 2) | Concentration of endogenous D-serine in the cerebellum [1] | Effect on ataxia [1]
1 | CN1[C@@H]2C[C@@H](OC(=O)[C@H](CO)c3ccccc3)C[C@H]1[C@@H]1O[C@@H]12 [scopolamine] | 37.67% | 40.33% | 43.78% | 43.33% | 45.67% | 45.98% | 48.78% | 51.56% | 51.33% | 52.56% | 51.22% | 45.78% | 43.78% | 42.00% | 43.22% | 26.44% | 27.44% |  | 
2 | N[C@@H]1CONC1=O [D-cycloserine] |  |  |  |  |  |  |  |  |  |  |  |  |  |  |  |  |  | increase in the concentration of endogenous D-serine in the cerebellum | ameliorating effect on ataxia
3 | CCOC(=O)[C@H](N)CO [D-serine ethylester] |  |  |  |  |  |  |  |  |  |  |  |  |  |  |  |  |  | increase in the concentration of endogenous D-serine in the cerebellum | ameliorating effect on ataxia
